{"source": "patent US20250230193A1", "about": "“CYCLIC COMPOUND HAVING SELECTIVE KRAS INHIBITORY EFFECT ON HRAS AND NRAS” (CHUGAI SEIYAKU KABUSHIKI KAISHA, priority 2022, published 2025)", "key": {"[1]": {"molecular_target": "GDP-bound NRAS wild-type protein (Homo sapiens, UniProt P01111)", "sequence (P01111 whole entry)": "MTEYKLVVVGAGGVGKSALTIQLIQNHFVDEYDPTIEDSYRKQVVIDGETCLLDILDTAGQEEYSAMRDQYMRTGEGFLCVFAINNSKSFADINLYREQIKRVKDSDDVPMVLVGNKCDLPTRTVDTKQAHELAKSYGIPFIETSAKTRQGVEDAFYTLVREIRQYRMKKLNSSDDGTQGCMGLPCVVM", "assay": "Binding to NRAS by surface plasmon resonance (SPR), Single Cycle Kinetics", "conditions": "for NRAS/KRAS (ratio of KD value with respect to NRAS to KD value with respect to KRAS): GDP-bound NRAS wild-type vs GDP-bound KRAS wild-type"}, "[2]": {"molecular_target": "GDP-bound HRAS wild-type protein (Homo sapiens, UniProt P01112)", "sequence (P01112 whole entry)": "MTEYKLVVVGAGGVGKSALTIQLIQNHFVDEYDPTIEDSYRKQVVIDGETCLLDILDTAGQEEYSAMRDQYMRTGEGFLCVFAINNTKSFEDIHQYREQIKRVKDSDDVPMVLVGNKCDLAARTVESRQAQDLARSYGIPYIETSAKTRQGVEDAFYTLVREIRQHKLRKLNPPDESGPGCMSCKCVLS", "assay": "Binding to HRAS by surface plasmon resonance (SPR), Single Cycle Kinetics", "conditions": "for HRAS/KRAS (ratio of KD value with respect to HRAS to KD value with respect to KRAS): GDP-bound HRAS wild-type vs GDP-bound KRAS wild-type"}}, "note": "*1 amine or outer side, *2 acyl side, *3 side chain or, on linkers, in order; H or OH if unused. Where a SMILES comes first, the peptide text is derived from it. Bridges are numbered along the chain shown (N, C = ends). [ ]: non-standard residue; d: D form. The star is where a group is joined. X24 = O=C([C@H](Cc1ccc(C(F)(F)F)cc1)N(CCC(F)(F)F)[*:1])[*:2]; hPhe(3-Cl-4-CF3) = N[C@@H](CCc1ccc(C(F)(F)F)c(Cl)c1)C(=O)O; NPrPhe(4-CF3) = CCCN[C@@H](Cc1ccc(C(F)(F)F)cc1)C(=O)O; NMeGly(cPent) = CN[C@H](C(=O)O)C1CCCC1; Hyp = O=C(O)[C@@H]1C[C@@H](O)CN1; NMeD = CN[C@@H](CC(=O)O)C(=O)O; NMeL = CN[C@@H](CC(C)C)C(=O)O; Morpholide = C1CN(*)CCO1; NMeA = CN[C@@H](C)C(=O)O; Ac5c = NC1(C(=O)O)CCCC1; Aze = O=C(O)[C@@H]1CCN1; Sar = CNCC(=O)O"}
{"compound": "CCO[C@@H]1C[C@H]2C(=O)NC3(CCC3)C(=O)N(C)[C@@H](C3CCCC3)C(=O)N(CCC3CCCC3)[C@H](C(=O)N(C)C)CC(=O)N(C)[C@@H](CC)C(=O)N[C@@H]([C@@H](C)CC)C(=O)N(C)CC(=O)N(C)[C@H]3CCCCN(C3=O)[C@@H](Cc3ccc(C(F)(F)F)cc3)C(=O)N(C)CC(=O)N[C@@H](CCc3cc(F)c(C(F)(F)F)c(F)c3)C(=O)N2C1", "note": "[PP0646]", "values": [{"measurement": "NRAS/KRAS (ratio of KD value with respect to GDP-bound NRAS wild-type protein to KD value with respect to KRAS)", "setting": "[1]; SPR", "value": "C (A compound having a KD ratio of 0.1 or more and less than 3 is denoted as C)"}, {"measurement": "HRAS/KRAS (ratio of KD value with respect to GDP-bound HRAS wild-type protein to KD value with respect to KRAS)", "setting": "[2]; SPR", "value": "B (a compound having 3 or more and less than 10 is denoted as B)"}]}
{"compound": "CC[C@H](C)[C@@H]1NC(=O)[C@H](CC(C)C)N(C)C(=O)C[C@@H](C(=O)N2CCOCC2)N(C)C(=O)[C@H](C2CCCC2)N(C)C(=O)C2(CCCC2)NC(=O)[C@@H]2CCCN2C(=O)[C@H](CCc2ccc(C(F)(F)F)c(Cl)c2)NC(=O)CN(C)C(=O)[C@H](Cc2ccc(C(F)(F)F)cc2)N(CCC(F)(F)F)C(=O)[C@@H]2CCN2C(=O)[C@H](C)N(C)C1=O", "note": "[PP0117] ([NMeL]I[NMeA][Aze][X24][Sar][hPhe(3-Cl-4-CF3)]P[Ac5c][NMeGly(cPent)][NMeD]-Morpholide; lactam N-11)", "values": [{"measurement": "NRAS/KRAS (ratio of KD for GDP-bound NRAS wild-type to KD for KRAS)", "setting": "[1]; SPR", "value": "B (a compound having 3 or more and less than 10 is denoted as B)"}, {"measurement": "HRAS/KRAS (ratio of KD for GDP-bound HRAS wild-type to KD for KRAS)", "setting": "[2]; SPR", "value": "B (a compound having 3 or more and less than 10 is denoted as B)"}]}
{"compound": "CCOC[C@H]1C(=O)N[C@@H]([C@@H](C)CC)C(=O)N2CCC[C@H]2C(=O)N(C)[C@H]2C/C=C\\CCN(C2=O)[C@@H](CC2CCCCC2)C(=O)N(C)CC(=O)N[C@@H](CCc2ccc(C(F)(F)F)c(OC)c2)C(=O)N2C[C@@H](C)C[C@H]2C(=O)N(C)C2(CCC2)C(=O)N(C)[C@@H](C2CCCC2)C(=O)N(C)[C@H](C(=O)N(C)C)CC(=O)N1C", "note": "[PP2375]", "values": [{"measurement": "NRAS/KRAS (ratio of KD value with respect to NRAS to KD value with respect to KRAS)", "setting": "[1]; SPR", "value": "A (a compound having 10 or more and less than 20 is denoted as A)"}, {"measurement": "HRAS/KRAS (ratio of KD value with respect to HRAS to KD value with respect to KRAS)", "setting": "[2]; SPR", "value": "B (a compound having 3 or more and less than 10 is denoted as B)"}]}
{"compound": "CCCOC[C@H]1C(=O)N[C@@H]([C@@H](C)CC)C(=O)N(C2CC2)CC(=O)N(C)[C@H]2C/C=C\\CCN(C2=O)[C@@H](Cc2ccc(C)cc2)C(=O)N(C)CC(=O)N[C@@H](CCc2ccc(C(F)(F)F)c(OC)c2)C(=O)N2C[C@H](OCC)C[C@H]2C(=O)N(C)C2(CCC2)C(=O)N(C)[C@@H](C(CC)CC)C(=O)N(C)[C@H](C(=O)N(C)C)CC(=O)N1C", "note": "[PP2327]", "values": [{"measurement": "NRAS/KRAS (ratio of KD value with respect to NRAS to KD value with respect to KRAS)", "setting": "[1]; SPR", "value": "A (a compound having 10 or more and less than 20 is denoted as A)"}, {"measurement": "HRAS/KRAS (ratio of KD value with respect to HRAS to KD value with respect to KRAS)", "setting": "[2]; SPR", "value": "A (a compound having 10 or more and less than 20 is denoted as A)"}]}
{"compound": "CCCN1C(=O)[C@@H]2CCN2C(=O)[C@H](C)N(C)C(=O)[C@H]([C@@H](C)CC)NC(=O)[C@H](CC(C)C)N(C)C(=O)C[C@@H](C(=O)N2CCOCC2)N(C)C(=O)[C@H](C2CCCC2)N(C)C(=O)C2(CCCC2)NC(=O)[C@@H]2C[C@@H](OCC)CN2C(=O)[C@H](CCc2ccc(C(F)(F)F)c(Cl)c2)NC(=O)CN(C)C(=O)[C@@H]1Cc1ccc(C(F)(F)F)cc1", "note": "[PP0228] ([NMeL]I[NMeA][Aze][NPrPhe(4-CF3)][Sar][hPhe(3-Cl-4-CF3)][Hyp](Et)[Ac5c][NMeGly(cPent)][NMeD]-Morpholide; lactam N-11)", "values": [{"measurement": "NRAS/KRAS (ratio of KD for GDP-bound NRAS wild-type to KD for KRAS)", "setting": "[1]; SPR", "value": "C (A compound having a KD ratio of 0.1 or more and less than 3 is denoted as C)"}, {"measurement": "HRAS/KRAS (ratio of KD for GDP-bound HRAS wild-type to KD for KRAS)", "setting": "[2]; SPR", "value": "B (a compound having 3 or more and less than 10 is denoted as B)"}]}
{"compound": "CCC[C@H]1C(=O)N[C@@H]([C@@H](C)CC)C(=O)N(C)CC(=O)N(C)[C@H]2C/C=C\\CCN(C2=O)[C@@H](Cc2ccc(C)cc2)C(=O)N(C)CC(=O)N[C@@H](CCc2ccc(C(F)(F)F)c(OC)c2)C(=O)N2C[C@H](OCC)C[C@H]2C(=O)NC2(CC(C)(C)C2)C(=O)N(C)[C@@H](CC2CCC2)C(=O)N(C)[C@H](C(=O)N(C)C)CC(=O)N1C", "note": "[PP2753]", "values": [{"measurement": "NRAS/KRAS (ratio of KD value with respect to GDP-bound NRAS wild-type protein to KD value with respect to KRAS)", "setting": "[1]; class symbols", "value": "A (a compound having 10 or more and less than 20 is denoted as A)"}, {"measurement": "HRAS/KRAS (ratio of KD value with respect to GDP-bound HRAS wild-type protein to KD value with respect to KRAS)", "setting": "[2]; class symbols", "value": "B (a compound having 3 or more and less than 10 is denoted as B)"}]}
{"compound": "CC[C@H](C)[C@@H]1NC(=O)[C@H](CC(C)C)N(C)C(=O)C[C@@H](C(=O)N2CCOCC2)N(C)C(=O)[C@H](C2CCCC2)N(C)C(=O)C2(CCC2)NC(=O)[C@@H]2C[C@@H](OCC(F)F)CN2C(=O)[C@H](CCc2cc(F)c(C(F)(F)F)c(F)c2)NC(=O)CN(C)C(=O)[C@H](Cc2ccc(C(F)(F)F)cc2)N2CCCCC[C@@H](C2=O)N(C)C(=O)CN(C)C1=O", "note": "[PP1006]", "values": [{"measurement": "NRAS/KRAS (ratio of KD value with respect to NRAS to KD value with respect to KRAS)", "setting": "[1]; KD ratio, SPR", "value": "B (a compound having 3 or more and less than 10 is denoted as B)"}, {"measurement": "HRAS/KRAS (ratio of KD value with respect to HRAS to KD value with respect to KRAS)", "setting": "[2]; KD ratio, SPR", "value": "B (a compound having 3 or more and less than 10 is denoted as B)"}]}
